A value given as a limit tells only on which side of the number the result lay.

In turn, `CCC(=O)NCC(COS(C)(=O)=O)c1cccc2ccc(OC)cc12` (centres undefined) came in with a melting point of 118 to 120 °C.
The molecule `O=c1c2c(Cl)cc(Cl)cc2n(Cc2ccccc2)c(=O)n1Cc1ccc(F)cc1` registered a melting point of 148 to 151 °C.
For `CSc1nc2sccc2c2nnc(SCc3ccccc3)n12`, the melting point was in the range of 209 to 211 °C.
The molecule `N#CCCNC(=O)c1cccc(-c2ccc3c(c2)C(Nc2ccc(Cl)cc2Cl)CO3)c1` (centres undefined) came in with a melting point of 165 to 166 °C.
As for `CC(C(=O)O)c1ccc2c(c1)oc1ccc(Cl)cc12` (single isomer, unassigned; (+)), the figure is 155 to 157 °C.
`C=Cc1cc(C(C)NC(=O)OC(C)(C)C)ccc1NS(=O)(=O)C=C` (centres undefined): the melting point is 80 to 82 °C.
Consider `CC(C)n1nc(-c2sc(C(=O)NC3CC3)nc2-c2ccc(F)cc2)ccc1=O`, for which the melting point is 157 to 158 °C.
In turn, `COc1cccc(CCc2ccccc2C(=O)O)c1` came in with a melting point of 119 to 122 °C.
Consider `Cc1cc(C)c(Oc2nc(C)nc(Cl)c2Cl)c(C)c1`, for which the melting point lay within 68 to 70 °C.
For the molecule `Brc1ccc(N=C(c2ccccc2)c2ccccc2)cc1`, the melting point is 82 to 83 °C.
As for `CC(O)Cc1cc([N+](=O)[O-])cc([N+](=O)[O-])c1N` (centres undefined), the melting point was found to be 168 °C.
Consider `CN1C(=O)C(C)(Cc2ccccc2)N(C)C(=O)C1C1NC(=O)c2cccc(F)c21` (centres undefined), for which the melting point fell in the range of 183 to 185 °C.
Regarding `CCOC(=O)c1cn(C2CC2)c2cc(F)c(F)c(N)c2c1=O`, the melting point lay within 240 to 241 °C.
Molecule `O=S1CCn2c1nc(-c1ccc(F)cc1)c2-c1ccncc1` (centres undefined) showed a melting point of 229 to 231 °C.
Molecule `CCOC(=O)Cc1cnc(C(C)(C)C)nc1O` came in with a melting point of 98 to 102 °C.
Molecule `CC(C)(C)c1cc(C(=O)NN(C(=O)O)C(C)(C)C)cc(C(C)(C)C)c1O` returned a melting point of 196 °C.
As for `O=C(O)c1cc(=O)n(Cc2ccc(S(=O)(=O)O)cc2S(=O)(=O)O)[nH]1`, the melting point is over 300 °C.
Next, `COC(=O)CCSCc1csc(NC(N)=NCC(F)(F)F)n1`: 96 to 98 °C; `OC1(c2ccc(Br)cc2)CCN(CCCc2noc3cc(F)ccc23)CC1`: 138 to 145 °C; `Cn1c(-c2ccc(O)c(F)c2)cc2ncccc2c1=O`: 182 to 184 °C.
Turning to `CC(C)n1c(S(=O)(=O)c2ccc(O)cc2)nc2ccccc21`, the melting point was determined as 198 °C.
In the case of `CSc1ccc(-c2cc(C(=O)O)nn2-c2ccc(F)cc2)cc1`, the melting point is 199 to 200 °C.
In turn, `N#CC(=Cc1ccc(CBr)cc1)c1ccccc1` returned a melting point of 61 °C.
Molecule `CC(C)(C)c1cc2c(c(-c3nc4ccc(S(=O)(=O)C(F)(F)F)cc4c(=O)[nH]3)c1O)CCO2` registered a melting point of 235 to 237 °C.
Molecule `CS(=O)(=O)Nc1ccccc1SCc1ncon1` returned a melting point of 106 °C.
As for `CCC(=C(c1ccc(O)cc1)c1ccc(O)cc1)c1ccc(OCCO)c(OC)c1`, the melting point lay in the range of 158 to 159 °C.
Next, `Nc1c(C(=O)O)cnn1-c1ccc(Cl)cc1`: 169 to 171 °C; `CCOCC(=O)Nc1cccc(NC)c1C#N`: 133 to 134 °C.
Turning to `COc1ccc(S(=O)(=O)C2(C(=O)O)CCN(CCOc3ccccc3)CC2)cc1`, the melting point is 235 °C.
In turn, `O=C(CC(=O)c1ccccc1)C(=O)CC(=O)c1ccccc1` gave a melting point of 178 to 180 °C.
Regarding `O=C(NCCO)c1cccc(-c2cccc3cn(Cc4cccc(C(F)(F)F)c4)nc23)c1`, the melting point was in the range of 136 to 137 °C.
As for `O=C(O)c1cnc(C(F)(F)F)nc1C(F)(F)F`, the figure is 59 °C; as for `CCOC(=O)C(Cc1cccc2ccccc12)C(=O)OCC`, 30 °C; as for `O=C1CCC(N2C(=O)c3cccc(OCc4ccc(CN5CCSCC5)cc4)c3C2=O)C(=O)N1` (centres undefined), 221 to 223 °C.
Regarding `O=C1CCCN1S(=O)(=O)c1ccc(N2CCOCC2)cc1`, the melting point lay in the range of 120 to 122 °C.
As for `CCN1CCC(CCC2CCN(c3ncnc4cc(OC)c(OC)cc34)CC2)S1(=O)=O` (centres undefined), the figure is 130 °C; as for `CCCCCCCCCCCC(=O)N[C@@H](C)C(=O)N[C@H](CCC(=O)O)C(N)=O`, 163 °C; as for `CCOC(=O)c1c(C(F)(F)C(F)(F)F)[nH]c(C(F)(F)C(F)(F)F)c1C(=O)OCC`, 64.5 to 65.5 °C.
For the molecule `C=C(c1ccsc1C=O)c1cc(C(C)(C)C)cc2c1CCC2(C)C`, the melting point fell in the range of 99 to 100 °C.
Take `CC(C)(CC(O)(Cn1ccc2c1CCCC2=O)C(F)(F)F)c1cccc2c1OCC2` (centres undefined): the melting point was 145 to 146 °C.
As for `CN1CCCC1CCNc1nccc(Oc2ccc(NC(=O)c3cc(F)cc(N4CCOCC4)c3)c3ccccc23)n1` (centres undefined), the figure is 100 to 101 °C; as for `COC(=O)c1scc(-c2ccccc2)c1-c1ccc(S(C)=O)c(F)c1` (centres undefined), 164 °C.
`CN1CC(CCCl)Oc2ccccc2C1=O` (centres undefined): the melting point is 97 to 107 °C.
Turning to `NC(=O)c1cnn(-c2ccc(Cl)nn2)c1N`, the melting point is 314 to 317 °C.
As to `O=C(c1ccc(CBr)cc1)c1c(Cl)cccc1Cl`, the melting point was 126 to 130 °C.
`Nc1cc2[nH]c(=O)ccc2cn1` yielded a melting point of over 275 °C.
The molecule `CC(C)C(O)(C#Cc1cccs1)c1cncnc1` (centres undefined) gave a melting point of 113 to 114 °C.
As for `COc1cc2ncnc(N3CCC(=O)CC3)c2cc1OC`, the figure is 176 to 178 °C; as for `O=C(c1cccc(Cl)c1)c1sc2cc(O)ccc2c1-c1ccccc1`, 215 °C; as for `CCOC(=O)Oc1ccc(OC)c(N)c1`, 150 to 151 °C.
Take `CNc1cc(NS(=O)(=O)c2cccc(C(F)(F)F)c2)nc(NC)n1`: the melting point was 234 to 235 °C.
In the case of `CC(C)C(C(=O)O)N(CCN1CCOCC1)S(=O)(=O)c1ccc(-c2ccc(NC(=O)c3cc4ccccc4o3)cc2)cc1` (centres undefined), the melting point fell in the range of 181 to 185 °C.
Molecule `COc1cc2c(c3c1OC(C)(C)C3)C(c1cccc(N3CCN(C(=O)OC(C)(C)C)S3(=O)=O)c1)=NC(C)(C)C2` displayed a melting point of 157 to 159 °C.
Next, `OCC1OC(n2cnc3c(NCC(c4ccc(F)cc4)c4ccc(F)cc4)ncnc32)C(O)C1O` (centres undefined): 75 to 80 °C; `C=C(C)c1nn(-c2c(Cl)cc(C(F)(F)F)cc2Cl)cc1C1CC1(Br)Br` (centres undefined): 86.5 to 88.2 °C.
As for `COC(=O)c1cc2c(nc1C)C(=O)CCC2`, the figure is 180 to 181 °C.
As for `O=S(=O)(Nc1cccc(CCOCc2nc(-c3ccc(F)cc3)sc2Br)c1)C(F)(F)F`, the figure is 84 to 85 °C.
`CN1CCc2c(-c3ccc(F)cc3)c(C(=O)N(C)Cc3cc(C(F)(F)F)cc(C(F)(F)F)c3)n(C)c(=O)c2C1` came in with a melting point of 156 to 157 °C.
Take `COc1cc2nc(-c3cc(C)c(O)c(C)c3)[nH]c(=O)c2cc1OC`: the melting point is over 300 °C.
In turn, `NS(=O)(=O)c1cccc(NC(=O)c2cnn3c(C(F)(F)F)cc(-c4ccc(Cl)cc4)nc23)c1` displayed a melting point of 260 °C.
`Cc1nc(-c2cc3c(OC[C@@H](O)CN4CCC(c5ccc6ccccc6c5)CC4)cccc3o2)no1` gave a melting point of 146 to 148 °C.
In turn, `CN(C)CCOc1ccc(N(C(=O)c2ccc(F)cc2)c2ccccc2)cc1` yielded a melting point of 88.5 to 90 °C.
In turn, `Cc1cccc(-c2nc3ccccc3n2Cc2ccccc2Cl)c1` registered a melting point of 117 °C.
As for `CC(C)(C)OC(=O)N1CC(CCl)c2c1ccc1ccccc21` (centres undefined), the figure is 107 to 108 °C; as for `Cc1nnc2ccc(-c3cccc(NC(=O)N(C)C)c3)nn12`, 237 to 239 °C.
`CCOC(=O)CN1C(=O)CSC1=NN=C(C)C` registered a melting point of 60 to 62 °C.
The molecule `CON=C(Nc1nc(OC)nc(OC)n1)NS(=O)(=O)c1ccccc1-c1ccccc1` returned a melting point of 189 to 190 °C.
As for `CC(=O)N(CC(C)C)C1NC(=O)N(c2ccc(C)cc2)C(=O)N1`, the figure is 159 to 160 °C; as for `COC(=O)C1=NNC(C)=C(C(=O)OC)C1c1ccccc1C(F)(F)F` (centres undefined), 205 °C.
On to `CCOc1ccc2c(C)c(CCCl)c(=O)oc2c1OCC`, for which the melting point lay within 89 to 90 °C.
The molecule `COc1cc(C)nc(NC(=S)NNC(=O)c2ccccc2)n1` yielded a melting point of 193 to 195 °C.
In the case of `CC(C=Cc1cccc(-c2cc3c(cc2C)C(C)(C)CCC3(C)C)c1)=CC(=O)O`, the melting point lay in the range of 99 to 101 °C.
`CCOC(=O)c1c(Cl)c2cc(Oc3ccc(C(F)(F)F)cc3)ccc2n1-c1ccc(OC(C)C)cc1`: the melting point was 136 to 138 °C.
As to `CC(C)S(=O)(=O)n1c(N)nc2ccc(C(=O)c3ccccc3)cc21`, the melting point was in the range of 191 to 193 °C.
As for `Nc1cccc(CNC(=O)C2Cc3ccccc3N2S(=O)(=O)c2ccc(-c3cccc(C(F)(F)F)c3)cc2)c1` (centres undefined), the figure is 82 °C.
With `Cn1cc(C#N)c(Nc2ccccc2[N+](=O)[O-])n1`, the melting point stood at 172 °C.
With `ClCCCOc1ccccc1Nc1nc(Cl)nc2c1ncn2C1CCCC1`, the melting point lay within 110 to 112 °C.
In turn, `CON=C(C(=O)OC)c1c(C)cccc1CBr` gave a melting point of 76 to 78 °C.
Regarding `CC(Cl)c1ccc(C(=O)c2cccs2)cc1` (centres undefined), the melting point was determined as 60 °C.
`CCOC(=O)/C=C/c1ccccc1C#N` yielded a melting point of 60 to 62 °C.
Turning to `CNC(=O)NC(=O)N1CCN(c2ccccc2)CC1`, the melting point lay within 198 to 200 °C.
`NC(=O)N(O)Cc1cccc(C(O)C#Cc2cccnc2)c1` (centres undefined) had a melting point of 153 °C.
Regarding `COc1ccc(Br)cc1-c1cc(-c2cccc(Br)c2)on1`, the melting point fell in the range of 149 to 150 °C.
As for `O=C(CCl)Nc1ccc2c(c1NC(=O)c1cccc(F)c1)C(=O)c1ccccc1C2=O`, the figure is 197 to 198 °C; as for `Cn1cccc1-c1nc2cc(N)ccc2o1`, 183 to 185 °C.
For the molecule `Cc1cc(C2C=CCC2)c(S(C)(=O)=O)cc1C(=O)N=C(N)N` (centres undefined), the melting point lay within 212 to 214 °C.
On to `Nc1cccc(CC(=O)NCc2ccccc2Br)c1`, for which the melting point was 110 to 112 °C.
Turning to `COc1cc(C2(CNC(=O)Nc3c(C(C)C)cccc3C(C)C)CCC2)cc(OC)c1OC`, the melting point was in the range of 145 to 147 °C.
In the case of `Cc1cccc(-c2ccc3c(ccn3Cc3ccc(C(C)(C)C)cc3)c2)c1`, the melting point fell in the range of 94 to 95 °C.

Usually melting point stands for the temperature, or range, at which the solid turns liquid.

These data come from a melting point compilation (Tetko et al.; mined from patent text by program, amines drawn as free bases though some values may be those of a salt).
